# Data from US20070082856A1, “Combination therapy comprising the use of et-743 and doxorubicin for treating cancer” (Pharma Mar, S.A.U., priority 2003, published 2007).
# Tests used:
# [1] = Phase I clinical trial (Example 1): pharmacokinetics of both drugs for the 2 sequences; format: in vivo, human; conditions: for influence of order of administration on pharmacokinetics: ET-743 and Doxo, sequence A versus B; for comparison of the plasma disposition in patients receiving both sequences: ET-743 and doxorubicin, sequences A and B, cycle 1 and cycle 2
# Experimental: Pharmacokinetic [PK] of both drugs was determined for the 2 sequences at cycle 1 and cycle 2, when patients received the drugs in the reverse order of administration. Alternating sequence was discontinued at observation of dose limiting toxicity [DLT]: observation of grade 4 hematological toxicity for more than 3 days at the entry level. Both drugs were administered on day 1, with a 1 h interval between the 2 drugs (ET-743, 3-hr infusion i.v. and Doxo, 1-hr infusion i.v push with steroids & 5-HT3 antagonists as antiemetic prophylaxis). Oral steroids premedication for ET-743 was given 24 h before and for 48 h following the day of treatment. Doxo was administered at the fixed dose of 60 mg/m^2, while ET-743 was started at 600 μg/m^2 and escalated thereafter in subsequent cohorts of at least 3 new cases. Patients continued treatment until progressive disease (PD) or intolerance, and were restaged every 2 cycles for activity.
# [2] = Phase I clinical trial (Example 2): safety profile and DLT of ET-743 days 1 and 8 with doxorubicin day 1; conditions: fixed Doxo dose day 1 with ET-743 700 μg/m^2 days 1 and 8, every 21 days
# [3] = system: untreated metastatic soft tissue sarcomas (STS) and advanced pre-treated anthracyline-naïve breast cancer (ABC); assay: Phase I clinical trial (Example 1): antitumor activity of ET-743 in combination with doxorubicin; format: in vivo, human
# Experimental: In this multicenter dose and LTS finding trial, patients were assigned consecutively to start either with sequence A (ET-743 before Doxo) or with the reverse sequence (B) at the following dose levels every 21 days: […] Oral steroids premedication for ET-743 was given 24 h before and for 48 h following the day of treatment. […] Patients continued treatment until progressive disease (PD) or intolerance, and were […] 2 cycles for activity. In this study, 22 patients were enrolled and evaluable. The patients were required to have normal liver, renal, cardiac and haematologic functions and good performance status for entry into the study. Enrolment was restricted to breast cancer and soft tissue sarcoma.
# [4] = human, in vivo
# [5] = system: human tumor xenografts, including melanoma and ovarian and breast carcinoma; conditions: ET-743 alone; human tumor xenografts grown in athymic mice; cited from earlier work
# [6] = system: sarcoma and breast and ovarian carcinoma; conditions: ET-743 alone; phase I intravenous infusion schedules; cited from earlier work
# [7] = ET-743 with doxorubicin; tests on animal models; WO 0236135; cited from earlier work
# [8] = system: sarcoma cell line; conditions: ET-743 and doxorubicin, Meco et al. 2003; cited from earlier work
# [9] = system: transplanted human sarcomas; conditions: ET-743 and doxorubicin; mice with transplanted human sarcomas; Meco et al. 2003; cited from earlier work
smiles,measurement,setting,value
COc1cccc2c1C(=O)c1c(O)c3c(c(O)c1C2=O)C[C@@](O)(C(=O)CO)C[C@@H]3O[C@H]1C[C@H](N)[C@H](O)[C@H](C)O1 [doxorubicin],influence of order of administration on pharmacokinetics,[1],did not influence the pharmacokinetics
same,comparison of the plasma disposition in patients receiving both sequences,[1],did not reveal any significant pharmacokinetic interaction
same,"MTD, Doxo part",[2],50 mg/m^2
"COc1cc2c(cc1O)CCN[C@]21CS[C@@H]2c3c(OC(C)=O)c(C)c4c(c3[C@H](COC1=O)N1[C@@H]2[C@H]2c3c(cc(C)c(OC)c3O)C[C@@H]([C@@H]1O)N2C)OCO4 [ET-743, ecteinascidin 743]",antitumor activity,[3]; 600-700 μg/m^2 of ET-743 in combination with Doxo,Antitumor activity was observed
same,patients with confirmed partial response (PR),"[3]; all ET-743 dose levels + Doxo 60 mg/m^2, 22 evaluable patients",5 pts
same,antitumor activity of the combination,"[3]; combination of ET-743 and doxorubicin, phase I clinical trials",evidence of antitumor activity
same,influence of order of administration on pharmacokinetics,[1],did not influence the pharmacokinetics
same,comparison of the plasma disposition in patients receiving both sequences,[1],did not reveal any significant pharmacokinetic interaction
same,tolerability of the combination,[4],tolerable and feasible
same,antineoplastic activity,[5],potent antineoplastic activity
same,responses in patients,[6],Promising responses
same,effect of the combination,[7],synergistic effect
same,effect of the combination,[8],additive effect
same,effect of the combination,[9],additive effect
